This is an account of results in BindingDB's records for doi:10.1111/cbdd.12841 (Zhejiang University of Technology, 2017).

For test [1], the target named is T1, Amine oxidase [flavin-containing] A (Homo sapiens, UniProt P21397).
T1 sequence (P21397 whole entry): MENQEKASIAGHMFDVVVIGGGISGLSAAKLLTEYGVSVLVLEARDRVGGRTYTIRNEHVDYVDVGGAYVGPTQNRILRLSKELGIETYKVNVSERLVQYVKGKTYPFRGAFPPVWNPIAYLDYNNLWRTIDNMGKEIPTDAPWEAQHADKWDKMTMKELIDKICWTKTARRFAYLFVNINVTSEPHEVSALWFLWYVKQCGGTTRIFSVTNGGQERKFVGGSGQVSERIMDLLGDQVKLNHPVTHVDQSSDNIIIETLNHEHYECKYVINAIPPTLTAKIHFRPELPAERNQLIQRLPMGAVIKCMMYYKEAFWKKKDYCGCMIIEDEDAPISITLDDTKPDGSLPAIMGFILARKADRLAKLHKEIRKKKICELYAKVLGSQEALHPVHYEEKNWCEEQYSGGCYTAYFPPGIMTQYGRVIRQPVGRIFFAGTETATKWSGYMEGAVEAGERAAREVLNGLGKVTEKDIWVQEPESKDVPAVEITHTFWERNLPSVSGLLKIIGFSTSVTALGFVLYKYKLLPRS
Kind of test: In vitro MAO-A/B Inhibition Assay. As to the method: (§1) The inhibitory activities of flavones were determined in vitro by using fluorescent probe method following the general procedure described in the literature. [Li et al., Nat. Commun., 5:3276]

Test [2] addresses T2, Amine oxidase [flavin-containing] B (Homo sapiens, UniProt P27338).
T2 sequence (P27338 whole entry): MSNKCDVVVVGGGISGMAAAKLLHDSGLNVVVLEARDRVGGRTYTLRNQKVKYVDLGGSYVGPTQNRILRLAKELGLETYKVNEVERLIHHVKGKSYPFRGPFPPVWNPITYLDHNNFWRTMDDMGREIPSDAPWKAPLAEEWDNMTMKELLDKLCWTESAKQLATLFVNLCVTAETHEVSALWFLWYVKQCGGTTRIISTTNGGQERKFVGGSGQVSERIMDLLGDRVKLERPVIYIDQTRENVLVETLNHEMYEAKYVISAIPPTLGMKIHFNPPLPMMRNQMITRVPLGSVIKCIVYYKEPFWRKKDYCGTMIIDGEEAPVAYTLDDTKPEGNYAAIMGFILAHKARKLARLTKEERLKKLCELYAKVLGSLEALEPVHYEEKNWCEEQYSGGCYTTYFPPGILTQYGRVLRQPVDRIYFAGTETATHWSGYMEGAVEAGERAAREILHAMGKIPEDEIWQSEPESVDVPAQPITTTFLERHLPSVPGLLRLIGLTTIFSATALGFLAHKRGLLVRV
Kind of test: In vitro MAO-A/B Inhibition Assay. As to the method:
as §1

For `O=C(CCCCc1cn(Cc2ccc3oc(-c4ccccc4)cc(=O)c3c2)nn1)Nc1ccccc1` [5-(1-((4-oxo-2-phenyl-4H-chromen-6-yl)methyl)-1H-1,2,3-triazol-4-yl)-N-phenylpentanamide (Az1k8)], the half-maximal inhibitory concentration (IC50) worked out at 327 µM in test [1] and 139 µM in test [2].

In the case of `O=c1cc(-c2ccccc2)oc2ccc(Cn3cc(CNc4ccc(Cl)cc4)nn3)cc12` [6-((4-(((4-chlorophenyl)amino)methyl)-1H-1,2,3-triazol-1-yl)methyl)-2-phenyl-4H-chromen-4-one (Az1k20)], the half-inhibitory concentration (IC50) in test [1] was 334 µM; in test [2], 176 µM.

Consider `O=c1cc(-c2ccccc2)oc2ccc(Cn3nncc3CNc3ccc(Cl)cc3)cc12` [6-((5-(((4-chlorophenyl)amino)methyl)-1H-1,2,3-triazol-1-yl)methyl)-2-phenyl-4H-chromen-4-one (Az2k1)], for which the values for the 50% inhibitory concentration (IC50) in test [1] and in test [2] were 334 µM and 176 µM, respectively.

As to `O=C(CCc1cn(Cc2ccc3oc(-c4ccccc4)cc(=O)c3c2)nn1)Nc1ccc(F)cc1` [N-(4-fluorophenyl)-3-(1-((4-oxo-2-phenyl-4H-chromen-6-yl)methyl)-1H-1,2,3-triazol-4-yl)propanamide (Az1k6)], the IC50 in test [1] turned out to be 738 µM; in test [2], 134 µM.

In the case of `Cc1ccc(C(=O)NCc2cn(Cc3ccc4oc(-c5ccc(Cl)cc5)cc(=O)c4c3)nn2)cc1` [N-((1-((2-(4-chlorophenyl)-4-oxo-4H-chromen-6-yl)methyl)-1H-1,2,3-triazol-4-yl)methyl)-4-methylbenzamide (Az2k2)], the half-maximal inhibitory concentration (IC50) in test [1] was found to be 541 µM; in test [2] it was 86 µM.

For the molecule `O=C(NCc1cn(Cc2ccc3oc(-c4ccccc4)cc(=O)c3c2)nn1)c1ccccc1` [N-((1-((4-oxo-2-phenyl-4H-chromen-6-yl)methyl)-1H-1,2,3-triazol-4-yl)methyl)benzamide (Az1k1)], the results for the 50% inhibitory concentration (IC50) in test [1] and in test [2] were 184 µM and 111 µM, respectively.

One may read the IC50 as the midpoint of a concentration-inhibition curve.
